In ChEMBL document CHEMBL1201862, “PubChem BioAssay data set” (2004):
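Growth conditions: 96-well plates. Treatment: test compound, 48 hours, 5 concentrations. Analysis: linear interpolation between bracketing concentrations; unreached endpoints set to highest concentration. GI50 is the concentration that inhibits growth by half.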 Calls of active or inactive are those of the source. Cut-off read from the data, not from the text of the source: active = GI50 up to about 1.1 µM and inactive = higher.

Legend:
Experiment in all cases: NCI-60 cell line screen, 48 h
[1] = test system: 786-0
[2] = test system: A498
[3] = test system: A549
[4] = test system: ACHN
[5] = test system: BT-549
[6] = test system: CAKI-1
[7] = test system: CCRF-CEM
[8] = test system: COLO 205
[9] = test system: DU-145
[10] = test system: EKVX
[11] = test system: HCC 2998
[12] = test system: HCT-116
[13] = test system: HCT-15
[14] = test system: HL-60
[15] = test system: HOP-62
[16] = test system: HOP-92
[17] = test system: HT-29
[18] = test system: Hs-578T
[19] = test system: KM12
[20] = test system: LOX IMVI
[21] = test system: M14
[22] = test system: MCF7
[23] = test system: MDA-MB-231
[24] = test system: MDA-MB-435
[25] = test system: MDA-N
[26] = test system: MOLT-4
[27] = test system: Malme-3M
[28] = test system: NCI-H226
[29] = test system: NCI-H23
[30] = test system: NCI-H460
[31] = test system: NCI/ADR-RES
[32] = test system: OVCAR-3
[33] = test system: OVCAR-5
[34] = test system: OVCAR-8
[35] = test system: PC-3
[36] = test system: RPMI-8226
[37] = test system: SF-268
[38] = test system: SF-295
[39] = test system: SF-539
[40] = test system: SK-MEL-28
[41] = test system: SK-MEL-5
[42] = test system: SK-OV-3
[43] = test system: SN12C
[44] = test system: SNB-19
[45] = test system: SR
[46] = test system: SW-620
[47] = test system: T47D
[48] = test system: TK-10
[49] = test system: U-251
[50] = test system: UACC-257
[51] = test system: UO-31
[52] = test system: IGROV-1
[53] = test system: K562
[54] = test system: NCI-H522
[55] = test system: OVCAR-4
[56] = test system: RXF 393
[57] = test system: SK-MEL-2
[58] = test system: SNB-75
[59] = test system: UACC-62

Question: For `C=Cc1cnc([N+](=O)[O-])n1C`, which GI50 [1] is on record?
Answer: The GI50 was > 100 µM (inactive).

Question: What about the GI50 [2] of the same compound?
Answer: Its GI50 is 34.3 µM (inactive).

Question: And the GI50 [3]?
Answer: Its GI50 is 56 µM (inactive).

Question: What about the GI50 [4] of the same compound?
Answer: Its GI50 is 52 µM (inactive).

Question: What about the GI50 [5] of the same compound?
Answer: The GI50 was 46.3 µM (inactive).

Question: What about the GI50 [6] of the same compound?
Answer: Its GI50 is 42.5 µM (inactive).

Question: What about the GI50 [7] of the same compound?
Answer: The GI50 was 46.1 µM (inactive).

Question: What about the GI50 [8] of the same compound?
Answer: Its GI50 is 46.5 µM (inactive).

Question: And the GI50 [9]?
Answer: Its GI50 is 37.1 µM (inactive).

Question: What about the GI50 [10] of the same compound?
Answer: Its GI50 is > 100 µM (inactive).

Question: And the GI50 [11]?
Answer: The GI50 was 42.7 µM (inactive).

Question: And the GI50 [12]?
Answer: The GI50 was 57.1 µM (inactive).

Question: What about the GI50 [13] of the same compound?
Answer: The GI50 was 50.2 µM.

Question: And the GI50 [14]?
Answer: The GI50 was 48.6 µM (inactive).

Question: And the GI50 [15]?
Answer: The GI50 was 92 µM (inactive).

Question: What about the GI50 [16] of the same compound?
Answer: The GI50 was 35.8 µM (inactive).

Question: What about the GI50 [17] of the same compound?
Answer: Its GI50 is > 100 µM (inactive).

Question: What about the GI50 [18] of the same compound?
Answer: Its GI50 is 35.7 µM (inactive).

Question: And the GI50 [19]?
Answer: The GI50 was 36.2 µM (inactive).

Question: And the GI50 [20]?
Answer: Its GI50 is 87.5 µM (inactive).

Question: And the GI50 [21]?
Answer: Its GI50 is 65.5 µM (inactive).

Question: What about the GI50 [22] of the same compound?
Answer: Its GI50 is 59 µM (inactive).

Question: What about the GI50 [23] of the same compound?
Answer: The GI50 was > 100 µM (inactive).

Question: What about the GI50 [24] of the same compound?
Answer: The GI50 was 60.8 µM (inactive).

Question: What about the GI50 [25] of the same compound?
Answer: The GI50 was 40 µM (inactive).

Question: What about the GI50 [26] of the same compound?
Answer: The GI50 was 53.8 µM (inactive).

Question: What about the GI50 [27] of the same compound?
Answer: The GI50 was 38.1 µM (inactive).

Question: And the GI50 [28]?
Answer: Its GI50 is > 100 µM (inactive).

Question: And the GI50 [29]?
Answer: Its GI50 is 98.9 µM (inactive).

Question: And the GI50 [30]?
Answer: Its GI50 is 56.8 µM (inactive).

Question: What about the GI50 [31] of the same compound?
Answer: The GI50 was > 100 µM (inactive).

Question: What about the GI50 [32] of the same compound?
Answer: Its GI50 is 69.7 µM (inactive).

Question: And the GI50 [33]?
Answer: Its GI50 is > 100 µM (inactive).

Question: And the GI50 [34]?
Answer: The GI50 was > 100 µM (inactive).

Question: What about the GI50 [35] of the same compound?
Answer: The GI50 was 40.8 µM (inactive).

Question: And the GI50 [36]?
Answer: The GI50 was 40.1 µM (inactive).

Question: And the GI50 [37]?
Answer: Its GI50 is 46.7 µM (inactive).

Question: What about the GI50 [38] of the same compound?
Answer: Its GI50 is 35.2 µM (inactive).

Question: And the GI50 [39]?
Answer: Its GI50 is 74.1 µM (inactive).

Question: What about the GI50 [40] of the same compound?
Answer: Its GI50 is 72.1 µM (inactive).

Question: What about the GI50 [41] of the same compound?
Answer: The GI50 was 83.2 µM (inactive).

Question: And the GI50 [42]?
Answer: The GI50 was 71 µM (inactive).

Question: What about the GI50 [43] of the same compound?
Answer: Its GI50 is > 100 µM (inactive).

Question: And the GI50 [44]?
Answer: The GI50 was > 100 µM (inactive).

Question: And the GI50 [45]?
Answer: Its GI50 is 20.7 µM (inactive).

Question: What about the GI50 [46] of the same compound?
Answer: Its GI50 is 62.1 µM (inactive).

Question: What about the GI50 [47] of the same compound?
Answer: The GI50 was 46.5 µM (inactive).

Question: And the GI50 [48]?
Answer: The GI50 was 36.1 µM (inactive).

Question: What about the GI50 [49] of the same compound?
Answer: The GI50 was > 100 µM (inactive).

Question: And the GI50 [50]?
Answer: Its GI50 is > 100 µM (inactive).

Question: And the GI50 [51]?
Answer: Its GI50 is 27.4 µM (inactive).

Question: Which results are given for `CC(C)(O)C1CC[C@]2(C)CC[C@]3(C)[C@H](CC[C@@H]4[C@@]5(C)CC[C@H](O)C(C)(C)[C@@H]5CC[C@]43C)[C@@H]12` (some centres not stated)?
Answer: GI50 [1]: 25.2 µM (inactive); GI50 [3]: 30.1 µM (inactive); GI50 [4]: 22.1 µM (inactive); GI50 [5]: 29.2 µM (inactive); GI50 [6]: 22.1 µM (inactive); GI50 [7]: 74.1 µM (inactive); GI50 [8]: 29.7 µM (inactive); GI50 [9]: 23.2 µM (inactive); GI50 [10]: 23.2 µM (inactive); GI50 [11]: 26.8 µM (inactive); GI50 [12]: 21 µM (inactive); GI50 [13]: 35 µM; GI50 [14]: > 100 µM (inactive); GI50 [15]: 25.8 µM (inactive); GI50 [16]: 14.5 µM (inactive); GI50 [17]: 35.8 µM (inactive); GI50 [18]: 22.7 µM (inactive); GI50 [52]: 33.3 µM (inactive); GI50 [53]: 82.6 µM (inactive); GI50 [19]: 34.4 µM (inactive); GI50 [21]: 36.3 µM (inactive); GI50 [22]: 34.6 µM (inactive); GI50 [23]: > 100 µM (inactive); GI50 [24]: 34.1 µM (inactive); GI50 [25]: 47.8 µM (inactive); GI50 [26]: 73.1 µM (inactive); GI50 [27]: 28.6 µM (inactive); GI50 [28]: 44.4 µM (inactive); GI50 [29]: 35.2 µM (inactive); GI50 [30]: 34.8 µM (inactive); GI50 [54]: 29.1 µM (inactive); GI50 [31]: 29.4 µM (inactive); GI50 [32]: 24.1 µM (inactive); GI50 [55]: 27.2 µM (inactive); GI50 [33]: 32.5 µM (inactive); GI50 [34]: 32.7 µM (inactive); GI50 [35]: 30.3 µM (inactive); GI50 [36]: 34.3 µM (inactive); GI50 [56]: 33.6 µM (inactive); GI50 [37]: 31 µM (inactive); GI50 [38]: 25.4 µM (inactive); GI50 [39]: 23.4 µM (inactive); GI50 [40]: 29.2 µM (inactive); GI50 [57]: 20.5 µM (inactive); GI50 [41]: 26 µM (inactive); GI50 [42]: 23.1 µM (inactive); GI50 [43]: 81.3 µM (inactive); GI50 [44]: 68.7 µM (inactive); GI50 [58]: 21.6 µM (inactive); GI50 [45]: 30.5 µM (inactive); GI50 [47]: 23.1 µM (inactive); GI50 [48]: 27.5 µM (inactive); GI50 [49]: 35.6 µM (inactive); GI50 [50]: 15.4 µM (inactive); GI50 [59]: 39 µM (inactive); GI50 [51]: 58.2 µM (inactive)
